In patent publication US20210300940A1 (Merck Patent GmbH, priority 2018, published 2021) one finds IC50 data, which are given here for 18 molecules.

Molecules are shown by their SMILES. Where a name gives a salt, the structure may show the parent alone.

One test deals with T1, TLR7 (Homo sapiens, UniProt Q9NYK1).
T1 construct: expressed in transfected cells; host or cells: HEK/293 cells carrying TLR7 and an NF-kB luciferase reporter
T1 sequence (Q9NYK1 27-1049): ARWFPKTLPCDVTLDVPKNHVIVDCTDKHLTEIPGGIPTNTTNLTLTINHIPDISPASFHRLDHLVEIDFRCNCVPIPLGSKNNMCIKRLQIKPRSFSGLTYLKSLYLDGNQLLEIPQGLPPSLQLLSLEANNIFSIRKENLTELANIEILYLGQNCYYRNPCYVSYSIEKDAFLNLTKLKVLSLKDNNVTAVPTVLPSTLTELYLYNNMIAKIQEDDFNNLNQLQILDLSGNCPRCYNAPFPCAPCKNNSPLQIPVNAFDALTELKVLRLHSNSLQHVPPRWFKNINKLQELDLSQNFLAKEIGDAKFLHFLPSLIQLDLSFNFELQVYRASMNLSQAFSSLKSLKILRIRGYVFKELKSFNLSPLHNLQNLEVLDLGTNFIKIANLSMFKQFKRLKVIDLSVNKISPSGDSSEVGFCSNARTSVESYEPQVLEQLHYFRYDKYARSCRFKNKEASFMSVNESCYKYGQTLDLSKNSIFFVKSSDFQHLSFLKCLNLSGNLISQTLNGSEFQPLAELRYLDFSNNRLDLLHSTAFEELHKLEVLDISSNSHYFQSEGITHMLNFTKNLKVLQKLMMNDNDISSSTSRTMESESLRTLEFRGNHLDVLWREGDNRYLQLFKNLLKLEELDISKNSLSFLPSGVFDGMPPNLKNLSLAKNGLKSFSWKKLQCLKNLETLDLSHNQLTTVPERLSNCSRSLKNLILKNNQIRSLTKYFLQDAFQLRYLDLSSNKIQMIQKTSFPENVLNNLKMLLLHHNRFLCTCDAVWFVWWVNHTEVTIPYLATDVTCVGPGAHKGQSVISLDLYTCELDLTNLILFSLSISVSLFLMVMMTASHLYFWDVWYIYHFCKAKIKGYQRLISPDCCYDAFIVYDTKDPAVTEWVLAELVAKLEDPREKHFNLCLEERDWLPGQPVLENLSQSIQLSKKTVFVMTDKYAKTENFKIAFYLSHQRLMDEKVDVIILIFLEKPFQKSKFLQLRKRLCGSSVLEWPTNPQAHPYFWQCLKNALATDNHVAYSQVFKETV
Put plainly: HEK/293 TLR7 Cell Assay. The test is classed as cell-based. The settings on record: TLR7/NFKb HEK cells, R848 agonist 10 uM final concentration, Steady-Glo readout; read-out: TLR7 potency. In a few lines: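 TLR7/NF-κB reporter HEK293 cells, 5000/well, cultured 24 h, then preincubated 30 min with compound before R848 agonist (10 uM final). After 5 h stimulation, Steady-Glo luciferase luminescence read.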

The next test has as its target T2, TLR8 (Homo sapiens, UniProt Q9NR97).
T2 construct: expressed in transfected cells; host or cells: HEK/293 reporter cells (NF-kB luciferase)
T2 sequence (Q9NR97 27-1041): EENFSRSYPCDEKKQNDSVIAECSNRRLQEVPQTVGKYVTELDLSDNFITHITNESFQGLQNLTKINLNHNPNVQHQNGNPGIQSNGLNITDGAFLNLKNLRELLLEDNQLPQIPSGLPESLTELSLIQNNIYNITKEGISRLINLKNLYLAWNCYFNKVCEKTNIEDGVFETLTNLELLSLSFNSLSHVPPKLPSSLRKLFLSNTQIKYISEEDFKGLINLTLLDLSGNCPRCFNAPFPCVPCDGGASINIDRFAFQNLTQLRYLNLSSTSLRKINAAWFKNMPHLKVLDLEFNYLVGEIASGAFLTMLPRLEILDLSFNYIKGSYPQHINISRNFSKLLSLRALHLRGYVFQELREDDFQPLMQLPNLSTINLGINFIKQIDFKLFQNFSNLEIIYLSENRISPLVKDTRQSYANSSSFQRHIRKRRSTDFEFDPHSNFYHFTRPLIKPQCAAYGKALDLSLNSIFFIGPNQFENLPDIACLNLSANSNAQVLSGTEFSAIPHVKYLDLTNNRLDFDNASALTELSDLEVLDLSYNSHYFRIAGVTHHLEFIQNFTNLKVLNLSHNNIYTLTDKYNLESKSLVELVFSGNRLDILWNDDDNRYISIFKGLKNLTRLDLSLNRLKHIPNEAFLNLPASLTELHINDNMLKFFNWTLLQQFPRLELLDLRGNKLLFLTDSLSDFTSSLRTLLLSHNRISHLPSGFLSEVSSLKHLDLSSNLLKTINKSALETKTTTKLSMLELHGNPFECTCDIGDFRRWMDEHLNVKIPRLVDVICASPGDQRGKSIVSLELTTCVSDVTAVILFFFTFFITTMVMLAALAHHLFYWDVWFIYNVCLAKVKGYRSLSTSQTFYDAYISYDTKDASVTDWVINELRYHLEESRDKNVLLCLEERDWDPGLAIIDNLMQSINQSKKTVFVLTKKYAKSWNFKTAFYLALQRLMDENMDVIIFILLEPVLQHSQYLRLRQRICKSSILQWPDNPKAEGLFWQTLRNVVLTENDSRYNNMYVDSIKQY
Put plainly: HEK/293 TLR8 Cell Assay. The test is classed as cell-based. The settings on record: HEK cells, R848 agonist 30 uM final concentration, Steady-Glo readout; read-out: TLR8 potency.

`C[C@@H]1CN(c2cnc(C#N)c3ncccc23)C[C@H](C(=O)NC[C@H]2CCCN2C)O1` [Example 276, (2R,6R)-4-(8-Cyano-[1,7]naphthyridin-5-yl)-6-methyl-morpholine-2-carboxylic acid ((R)-1-methyl-pyrrolidin-2-ylmethyl)-amide]: the IC50 on TLR7 is below 75 nM; on TLR8, 75 to 150 nM.

For `C[C@@H]1CN(c2cnc(C#N)c3ncccc23)C[C@H](C(=O)NC2CCC(N3CCOCC3)CC2)O1` (stereo partly drawn) [Example 277, (2R,6R)-4-(8-Cyano-[1,7]naphthyridin-5-yl)-6-methyl-morpholine-2-carboxylic acid (4-morpholin-4-yl-cyclohexyl)-amide], the IC50 on TLR7 and at TLR8 was below 75 nM throughout.

Take `C[C@@H]1CN(c2ccc(C#N)c3nccnc23)C[C@H](C(=O)N2C[C@@H](N)C3(CC3)C2)O1` [Example 288, 8-[(2R,6R)-2-((S)-7-Amino-5-aza-spiro[2.4]heptane-5-carbonyl)-6-methyl-morpholin-4-yl]-quinoxaline-5-carbonitrile]: the IC50 on TLR7 and at TLR8 was below 75 nM in each case.

Turning to `C[C@@H]1CN(c2ccc(C#N)c3nccnc23)C[C@H](C(=O)NC2CCNCC2(F)F)O1` (stereo partly drawn) [Example 289, (2R,6R)-4-(8-Cyano-quinoxalin-5-yl)-6-methyl-morpholine-2-carboxylic acid (3,3-difluoro-piperidin-4-yl)-amide], the IC50 at TLR7 and at TLR8 was below 75 nM in each case.

Turning to `C[C@@H]1CN(c2ccc(C#N)c3nccnc23)C[C@H](C(=O)NCC2(F)CCNCC2)O1` [Example 290, (2R,6R)-4-(8-Cyano-quinoxalin-5-yl)-6-methyl-morpholine-2-carboxylic acid (4-fluoro-piperidin-4-ylmethyl)-amide], the IC50 on TLR7 and on TLR8 was below 75 nM each time.

For `C[C@@H]1CN(c2ccc(C#N)c3nccnc23)C[C@H](C(=O)NC2CCNC3(CCC3)C2)O1` (stereo partly drawn) [Example 291, (2R,6R)-4-(8-Cyano-quinoxalin-5-yl)-6-methyl-morpholine-2-carboxylic acid (5-aza-spiro[3.5]non-8-yl)-amide], the IC50 at TLR7 and at TLR8 was below 75 nM throughout.

For `C[C@@H]1CN(c2ccc(C#N)c3nccnc23)C[C@H](C(=O)NCC2(F)CCNC2)O1` (stereo partly drawn) [Example 292, (2R,6R)-4-(8-Cyano-quinoxalin-5-yl)-6-methyl-morpholine-2-carboxylic acid (3-fluoro-pyrrolidin-3-ylmethyl)-amide], the IC50 at TLR7 and at TLR8 was below 75 nM each time.

As to `C[C@@H]1CN(c2ccc(C#N)c3nccnc23)C[C@H](C(=O)NCC2(F)CNC2)O1` [Example 293, (2R,6R)-4-(8-Cyano-quinoxalin-5-yl)-6-methyl-morpholine-2-carboxylic acid (3-fluoro-azetidin-3-ylmethyl)-amide], the IC50 on TLR7 and on TLR8 was below 75 nM each time.

For the molecule `C[C@@H]1CN(c2ccc(C#N)c3nccnc23)C[C@H](C(=O)N[C@H]2CNC[C@H]2F)O1` [Example 294, (2R,6R)-4-(8-Cyano-quinoxalin-5-yl)-6-methyl-morpholine-2-carboxylic acid ((3S,4R)-4-fluoro-pyrrolidin-3-yl)-amide hydrochloride (2)], the IC50 on TLR7 and on TLR8 was below 75 nM in each case.

Regarding `C[C@@H]1CN(c2ccc(C#N)c3nccnc23)C[C@H](C(=O)N2C[C@H](N)C[C@H](C(F)(F)F)C2)O1` [Example 295, 8-[(2R,6R)-2-((3R,5S)-3-Amino-5-trifluoromethyl-piperidine-1-carbonyl)-6-methyl-morpholin-4-yl]-quinoxaline-5-carbonitrile hydrochloride (2)], the IC50 on TLR7 and on TLR8 was below 75 nM in each case.

Take `Cc1c(F)cc(N2C[C@@H](C)O[C@@H](C(=O)N[C@H]3CNC[C@H]3F)C2)c2cccnc12` [Example 298, (2R,6R)-4-(7-Fluoro-8-methyl-quinolin-5-yl)-6-methyl-morpholine-2-carboxylic acid ((3S,4R)-4-fluoro-pyrrolidin-3-yl)-amide]: the IC50 at TLR7 and on TLR8 was below 75 nM in each case.

As to `C[C@@H]1CN(c2ccc(C#N)c3ncncc23)C[C@H](C(=O)NC2CCNCC2(F)F)O1` (stereo partly drawn) [Example 299, (2R,6R)-4-(8-Cyano-quinazolin-5-yl)-6-methyl-morpholine-2-carboxylic acid (3,3-difluoro-piperidin-4-yl)-amide], the IC50 at TLR7 and on TLR8 was below 75 nM throughout.

On to `C[C@@H]1CN(c2cnc(C#N)c3ncccc23)C[C@H](C(=O)NCC2(F)CCNCC2)O1` [Example 300, (2R,6R)-4-(8-Cyano-[1,7]naphthyridin-5-yl)-6-methyl-morpholine-2-carboxylic acid (4-fluoro-piperidin-4-ylmethyl)-amide], for which the IC50 at TLR7 was below 75 nM; on TLR8, 75 to 150 nM.

Consider `C[C@@H]1CN(c2cnc(C#N)c3ncccc23)C[C@H](C(=O)NCC2(F)CNC2)O1` [Example 301, (2R,6R)-4-(8-Cyano-[1,7]naphthyridin-5-yl)-6-methyl-morpholine-2-carboxylic acid (3-fluoro-azetidin-3-ylmethyl)-amide], for which the IC50 at TLR7 and at TLR8 was below 75 nM each time.

For the molecule `C[C@@H]1CN(c2cnc(C#N)c3ncccc23)C[C@H](C(=O)NC2CCNCC2(F)F)O1` (stereo partly drawn) [Example 302, (2R,6R)-4-(8-Cyano-[1,7]naphthyridin-5-yl)-6-methyl-morpholine-2-carboxylic acid (3,3-difluoro-piperidin-4-yl)-amide], the IC50 at TLR7 and at TLR8 was above 150 nM each time.

On to `C[C@@H]1CN(c2ccc(C#N)c3nccnc23)C[C@H](C(=O)N[C@@H](CO)C(=O)O)O1` [Example 321, (S)-2-{[(2R,6R)-4-(8-Cyano-quinoxalin-5-yl)-6-methyl-morpholine-2-carbonyl]-amino}-3-hydroxy-propionic acid], for which the figures for the IC50 at TLR7 and at TLR8 were 75 to 150 nM and above 150 nM, respectively.

Consider `C[C@@H]1CN(c2ccc(C#N)c3nccnc23)C[C@H](C(=O)N[C@@H]2CCN(CC3CC3)C2)O1` [Example 323, (2R,6R)-4-(8-Cyano-quinoxalin-5-yl)-6-methyl-morpholine-2-carboxylic acid ((R)-cyclopropylmethyl-pyrrolidin-3-yl)-amide], for which the IC50 on TLR7 and at TLR8 was below 75 nM each time.

As for `C[C@@H]1CN(c2ccc(C(F)(F)F)c3ncccc23)C[C@H](CN2CCC(N3CCCC3)CC2)O1` [Example 328, 5-[(2R,6S)-2-Methyl-6-(4-pyrrolidin-1-yl-piperidin-1-ylmethyl)-morpholin-4-yl]-8-trifluoromethyl-quinoline], the IC50 is below 75 nM at TLR7 and 75 to 150 nM on TLR8.
